Measured values taken from patent publication US11457631B2, “Antimicrobial compounds and methods of use” (AEQUOR, INC., priority 2016, dated 2022).

Columns and labels:
Assay type in all cases: cell-based, Staphylococcus aureus
S. aureus ATCC 25923 [1] = test: Minimum Inhibitory Concentration (MIC), CLSI M07-A9 modified for 96 well plates, planktonic bacteria; settings: overnight incubation
Experimental: (§1) Antibacterial and antibiofilm assay were performed on human pathogens and industrial microorganisms associated with contamination: Staphylococcus aureus (ATCC 25923 and ATCC 12600), S. epidermidis (ATCC 12228 and ATCC 14990), Pseudomonas aeruginosa (ATCC 27853), E. coli (ATCC 25922), C. albicans ATCC 18804), oral flora bacteria Streptococcus mutans (ATCC 25175) and S. gordonii (ATCC 33399), and/or marine biofilm former Cobetia marina (ATCC 25374).
(§2) Antibacterial assays were performed on planktonic bacteria to determine the Minimum Inhibitory Concentrations (MICs) and Minimum Bactericidal Concentrations (MBCs) for the compounds. MICs are defined as the lowest concentration of an antimicrobial that will inhibit the visible growth of a microorganism after overnight incubation. The MICs were determined using the standard CLSI Method M07-A9 for Dilution Antimicrobial Susceptibility Tests for Bacteria That Grow Aerobically modified for 96 well plates. MBCs are the lowest concentration of antimicrobial that kill the organism. MBCs were determined using the standard CLSI Method M26-A for Determining Bactericidal Activity of Antimicrobial Agents modified for 96 well plates.
(§3) A selection of the compounds were used in the above assays against S. aureus (ATCC 25923).

S. aureus ATCC 25923 [2] = test: Minimum Bactericidal Concentration (MBC), CLSI M26-A modified for 96 well plates; settings: planktonic
Experimental: as §1, §2, §3

S. aureus ATCC 25923 [3] = test: Minimum Biofilm Inhibition Concentration (MBIC), 96-well microplate static biofilm assay
Experimental: as §1
Antibiofilm assays were performed to determine the prevention and removal of biofilm. The 96-well microplate assay was used to determine the Minimum Biofilm Inhibition Concentration (MBIC) (Merritt, et al. 2005. Growing and analyzing static biofilms. Curr Protoc Microbiol. Chapter 1, Unit 1.)
The MBIC assay is defined as the lowest concentration of the compound that will inhibit the biofilm. The ASTM E2799-12 Standard Test Method for Testing Pseudomonas Biofilm using the Minimum Biofilm Eradicating Concentration (MBEC) assay was used to determine biofilm removal. The MBEC assay is defined as the lowest concentration of compound that will eradicate the biofilm. The qualitative MBEC is determined using a microplate reader at absorbance 630 nm and the quantitative MBEC is determined using log10 reduction.
as §3

S. aureus ATCC 25923 [4] = test: Minimum Biofilm Eradicating Concentration (MBEC) assay, ASTM E2799-12; settings: biofilm eradication
Experimental: Antibacterial and antibiofilm assay were performed on human pathogens and industrial microorganisms associated with contamination: Staphylococcus aureus (ATCC 25923 and ATCC 12600), S. epidermidis (ATCC 12228 and ATCC 14990), Pseudomonas aeruginosa (ATCC 27853), E. coli (ATCC 25922), C. albicans ATCC 18804), oral flora bacteria Streptococcus mutans (ATCC 25175) and S. gordonii (ATCC 33399), and/or marine biofilm former Cobetia marina (ATCC 25374). The MBIC assay is defined as the lowest concentration of the compound that will inhibit the biofilm. The ASTM […]-12 Standard Test Method for Testing Pseudomonas Biofilm using the Minimum Biofilm Eradicating Concentration (MBEC) assay was used to determine biofilm removal. The MBEC assay is defined as the lowest concentration of compound that will eradicate the biofilm. The qualitative MBEC is determined using a microplate reader at absorbance 630 nm and the quantitative MBEC is determined using log10 reduction. A selection of the compounds were used in the above assays against S. aureus (ATCC 25923).

MIC (S. aureus ATCC 25923 [1]): 0.25 % w/v
SMILES: CCCCNP(=O)(O)OC(C)=O [X is NH2; A is (CH2)3CH3, acetic (1-butyl phosphoramidic) anhydride]
MBC (S. aureus ATCC 25923 [2]): 0.25 % w/v | MBIC (S. aureus ATCC 25923 [3]): 0.25 % w/v | MBEC (S. aureus ATCC 25923 [4]): 0.25 % w/v
